SMILES strings stand for the structures. ≈ marks a conversion by molar mass, not a printed value.

What is called solubility (kinetic) is solubility judged after dilution from a stock solution rather than from solid.

For the data set the following is noted: buffer; pH 7.4; 200.0 µM.
Turning to `O=C(CN1C(=O)c2ccccc2C1=O)Nc1ccccc1`, the kinetic solubility came out at 18.9 µg/mL (≈ 67.4 µM). Compound `CCSc1nsc(NC(=O)Nc2ccccc2OC)n1` registered a kinetic solubility of 2.6 µg/mL (≈ 8.38 µM). The same measure for `COc1ccc(OC)c(S(=O)(=O)NCC(=O)O)c1`: 34.1 µg/mL (≈ 124 µM); for `O=C(CSc1ccc(C(F)(F)F)cn1)Nc1ccccc1`: 16.8 µg/mL (≈ 53.8 µM). The same measure for `CCC/C(O)=C1\C(=O)CC(C)(C)CC1=NCc1ccccc1`: over 44.9 µg/mL. The same measure for `O=C1Nc2ccc(Br)cc2C1=C1CCCCC1`: 7.4 µg/mL (≈ 25.3 µM). `FC(F)(F)c1cccc(OCc2noc(-c3ccsc3)n2)c1`: the solubility (kinetic) is under 0.3 µg/mL. The figure for `Cc1ccc(CN(C)C(=O)CCc2c[nH]c3ccccc23)o1` is 6.5 µg/mL (≈ 21.9 µM); for `Cc1ccccc1NC(=O)c1ccccn1` it is 28.9 µg/mL (≈ 136 µM); for `CCC(C)n1c(O)c(C=NCc2cccnc2)c(=O)[nH]c1=S` (stereo not given) it is 44.8 µg/mL (≈ 141 µM). `Cc1[nH]c(=O)[nH]c(=O)c1S(=O)(=O)N1CCCCC1` had a solubility (kinetic) of over 41 µg/mL. The same measure for `COCc1[nH]c(=S)[nH]c(=O)c1C`: over 27.9 µg/mL. The figure for `O=C(NCc1ccco1)c1ccc(-c2cccc(Cl)c2)o1` is 1.3 µg/mL (≈ 4.31 µM).

As to `Cl.O=C(CN1CCCC1)Nc1cccc(Cl)c1`, the solubility (kinetic) is over 41.3 µg/mL. The figure for `Cc1nc(C)c(C(=O)O)c(-c2ccsc2)c1C(=O)O` is over 41.6 µg/mL. The same measure for `COCCCn1c(=O)c2ccccc2n(CC(=O)NC2CCCC2)c1=O`: over 53.9 µg/mL; for `Cc1ccccc1OCC(=O)NCCCNC(=O)c1cccnc1`: over 49.1 µg/mL. The figure for `Cc1ccc(NC(=O)COc2cccc3c2OC(C)(C)C3)c(O)c1` is 6.8 µg/mL (≈ 20.8 µM). `C=C1N(C)c2cc([N+](=O)[O-])c(N)cc2C1(C)C` yielded a solubility (kinetic) of over 35 µg/mL. Take `O=C(Nc1ccc2oc(=O)ccc2c1)c1ccc(-c2cccc([N+](=O)[O-])c2)o1`: the solubility (kinetic) stood at 3.5 µg/mL (≈ 9.3 µM). Compound `CC1CC(C)(C)NC(=S)N1CCC(=O)N1c2ccccc2CC1C` (stereo not given) showed a kinetic solubility of 5.3 µg/mL (≈ 15.3 µM).

For the compound `Cc1nc(N)[nH]c(=O)c1Oc1cccc(C(F)(F)F)c1`, the kinetic solubility came out at 35.6 µg/mL (≈ 125 µM). For `Cc1cc(C(=O)CCl)c(C)n1-c1ccon1`, the solubility (kinetic) turned out to be 33.7 µg/mL (≈ 141 µM).

For the compound `CC(C)(C)OC(=O)N1CCN(C(=O)c2cccnc2Cl)CC1`, the kinetic solubility is over 48.9 µg/mL. Compound `COC(=O)C1=CNC=C(C(=O)OC)C1c1cccc2ccccc12` yielded a solubility (kinetic) of 2.6 µg/mL (≈ 8.04 µM). For `COc1ccccc1CC(=O)N1CCN(S(=O)(=O)c2ccccc2F)CC1`, the solubility (kinetic) is over 58.9 µg/mL.

The compound `CC(OC(=O)c1ccccc1Oc1ccccc1)C(=O)NC1CC1` (stereo not given) yielded a solubility (kinetic) of over 48.8 µg/mL. The figure for `O=C(c1ccco1)N1CCN(S(=O)(=O)c2cc(Cl)ccc2Cl)CC1` is 18.1 µg/mL (≈ 46.5 µM); for `CCN1CCN(C(=S)NC(=O)/C=C/c2cccs2)CC1` it is 44.8 µg/mL (≈ 145 µM); for `Cc1onc(-c2ccccc2)c1CNC(=O)Nc1cccc(Cl)c1` it is 1.8 µg/mL (≈ 5.27 µM).

In the case of `Cc1ccc(NC(=O)Cn2c(=O)oc3ccccc32)cc1C`, the kinetic solubility turned out to be 4.2 µg/mL (≈ 14.2 µM). In turn, `COc1ccccc1NC(=O)NCCc1ccccc1` returned a solubility (kinetic) of over 40.5 µg/mL. The figure for `COc1cccc(C(=O)O/N=C(\C)c2cnccn2)c1` is 30.7 µg/mL (≈ 113 µM); for `COC(=O)c1ccccc1S(=O)(=O)N1CCn2cccc2C1C` (stereo not given) it is 43.2 µg/mL (≈ 129 µM). The same measure for `Cc1onc(-c2ccccc2Cl)c1C(=O)N1CCN(C)CC1`: over 48 µg/mL; for `COc1cccc(CNC(=O)N2CCN(c3ccccc3)CC2)c1`: 20.5 µg/mL (≈ 63 µM).

Compound `COc1ccc(-n2nc3c(c2NC(C)=O)CS(=O)(=O)C3)cc1` came in with a solubility (kinetic) of over 48.2 µg/mL. The figure for `Cc1ccc(S(=O)(=O)N2CCOCC2)cc1NC(=O)CN1C(=O)NC(C)(c2ccc(Cl)cc2Cl)C1=O` (stereo not given) is 46.1 µg/mL (≈ 83 µM). The compound `COc1cccc(NC(=O)Nc2cccc(C)n2)c1` returned a kinetic solubility of 0.3 µg/mL (≈ 1.17 µM). The compound `CCCCN(C(=O)C1CCCO1)c1c(N)n(CCC)c(=O)[nH]c1=O` (stereo not given) displayed a kinetic solubility of over 50.8 µg/mL.

For `O=[N+]([O-])c1ccc2nonc2c1Nc1cccc(F)c1`, the solubility (kinetic) amounted to 1 µg/mL (≈ 3.65 µM). In turn, `O=C(Cc1cccs1)NCc1cc(Cl)cc(Cl)c1` gave a kinetic solubility of 34.3 µg/mL (≈ 114 µM). The figure for `Cc1ccc(-c2nc(=O)[nH]c3ccc(Br)cc23)cc1` is 6.7 µg/mL (≈ 21.3 µM); for `COC(=O)c1scc(C)c1NC(=O)CSc1ccc(Cl)cc1` it is 1.3 µg/mL (≈ 3.65 µM).

As for `CC(c1ccccc1)n1c(CO)nc2ccccc21` (stereo not given), the solubility (kinetic) came to 35.2 µg/mL (≈ 140 µM).

`CC(C)(C)c1ccc(COn2ccnc2)cc1` gave a kinetic solubility of 27.1 µg/mL (≈ 118 µM). The same measure for `CC(=O)Nc1cccc(OCCCNC(=O)c2ccc(C(C)(C)C)cc2)c1`: 23.2 µg/mL (≈ 63 µM); for `COC(=O)c1cc(C(=O)OC)n(Cc2ccc(C)cc2)c1C`: 28.9 µg/mL (≈ 95.9 µM). Compound `C=CCOc1ccc2c(c1)c(=O)cc(C(=O)O)n2CC` came in with a kinetic solubility of 39.7 µg/mL (≈ 145 µM). `O=C1/C(=C/c2ccc(F)cc2)Oc2cc(OC(=O)N3CCOCC3)ccc21` yielded a kinetic solubility of under 0.8 µg/mL. Compound `O=C1N(c2ccccc2)CCN1c1ccccc1` came in with a solubility (kinetic) of under 0.3 µg/mL.

`O=C(O)c1ccccc1Nc1ccc([N+](=O)[O-])cc1C(=O)O` returned a solubility (kinetic) of over 45.3 µg/mL. The figure for `O=C(COC(=O)c1cccs1)NCCCc1ccccc1` is 20.1 µg/mL (≈ 66.3 µM); for `CC(C)CNC(=O)[C@@H]1CSC2c3ccccc3C(=O)N21` (stereo not given in full) it is over 43.6 µg/mL. The figure for `COc1ccc(OC)c(C(=O)COC(=O)c2cccnc2Cl)c1` is over 50.4 µg/mL; for `Cc1cc(C)nc(/N=C(\N)N2CCc3ccccc32)n1` it is 37.1 µg/mL (≈ 139 µM).

As for `C=CCn1c(=NC(=O)c2cccs2)sc2cccc(OC)c21`, the kinetic solubility is under 0.4 µg/mL. The figure for `COc1ccc(OC)c(S(=O)(=O)N2CCNCC2)c1` is 38.1 µg/mL (≈ 133 µM).

Turning to `Cc1ccc(S(=O)(=O)c2c(C)c(C)c(C)[nH]c2=O)cc1`, the kinetic solubility was 29.7 µg/mL (≈ 102 µM). The same measure for `Cn1c(=O)c2c(nc(NC3CCCC3)n2C)n(C)c1=O`: over 41.6 µg/mL. The same measure for `O=C(NCCC1=CCCCC1)c1cc(-c2ccncc2)nc2ccccc12`: 1.2 µg/mL (≈ 3.36 µM); for `Cc1cccc(CS(=O)(=O)c2ncc(CO)n2C)c1`: over 42.1 µg/mL; for `COc1ccc(CC(=O)NCc2nc(-c3ccccc3)no2)cc1`: 13.4 µg/mL (≈ 41.4 µM).

`O=C(Nc1ccc(Cl)c(Cl)c1)Nc1ccon1` yielded a solubility (kinetic) of 1.6 µg/mL (≈ 5.88 µM). As to `CCN(c1ccccc1)S(=O)(=O)c1ccc(C(=O)NC2CCN(Cc3ccccc3)CC2)cc1`, the solubility (kinetic) was determined as 47.8 µg/mL (≈ 100 µM).

`Cc1cccc(OCC(=O)NCCCNC(=O)c2ccco2)c1`: the kinetic solubility was determined as 46.8 µg/mL (≈ 148 µM). The figure for `CCOC(=O)/C(C#N)=C/Nc1ccsc1C(C)=O` is 3.5 µg/mL (≈ 13.2 µM). `COc1cc2ccccc2cc1C(=O)N1CCOCC1` had a solubility (kinetic) of over 40.7 µg/mL.

The compound `O=C(O)c1cc(NC(=O)C2CCCO2)cc(C(=O)O)c1` (stereo not given) returned a solubility (kinetic) of over 41.9 µg/mL. The figure for `CN1C(=O)CSC1=Nc1ccc(F)cc1` is 28.7 µg/mL (≈ 128 µM); for `COc1ccc([N+](=O)[O-])cc1NC(=O)CCSCCc1ccccn1` it is over 54.2 µg/mL. Compound `Cc1cc(-c2onc(C)c2C(N)=O)no1` had a kinetic solubility of over 31.1 µg/mL.

`CC(=O)NC(=S)Nc1cccc2ccc(C)nc12` came in with a kinetic solubility of 1.1 µg/mL (≈ 4.24 µM). The figure for `CCOCCCNC(=O)c1oc2ccc3c(c2c1C)C(O)CC(C)(C)O3` (stereo not given) is over 54.2 µg/mL; for `COC(=O)c1sc(=S)n(Cc2ccccc2)c1C` it is 7.1 µg/mL (≈ 25.4 µM).

(Values after PubChem BioAssay AID1996.)
